Laboratory results published in ChEMBL document CHEMBL1124620, “New 1,4-dihydropyridine derivatives combining calcium antagonism and alpha-adrenolytic properties” (J Med Chem, 1989).

Legend:
[1] = molecular target: T1, Adrenergic receptor alpha-1 (Rattus norvegicus, UniProt P15823+P23944+P43140); test: Alpha-1-adrenolytic activity was assessed from the ability to inhibit [3H]prazosin binding to rat cerebral cortex preparation; format: tissue-based
T1 sequence (P15823 whole entry): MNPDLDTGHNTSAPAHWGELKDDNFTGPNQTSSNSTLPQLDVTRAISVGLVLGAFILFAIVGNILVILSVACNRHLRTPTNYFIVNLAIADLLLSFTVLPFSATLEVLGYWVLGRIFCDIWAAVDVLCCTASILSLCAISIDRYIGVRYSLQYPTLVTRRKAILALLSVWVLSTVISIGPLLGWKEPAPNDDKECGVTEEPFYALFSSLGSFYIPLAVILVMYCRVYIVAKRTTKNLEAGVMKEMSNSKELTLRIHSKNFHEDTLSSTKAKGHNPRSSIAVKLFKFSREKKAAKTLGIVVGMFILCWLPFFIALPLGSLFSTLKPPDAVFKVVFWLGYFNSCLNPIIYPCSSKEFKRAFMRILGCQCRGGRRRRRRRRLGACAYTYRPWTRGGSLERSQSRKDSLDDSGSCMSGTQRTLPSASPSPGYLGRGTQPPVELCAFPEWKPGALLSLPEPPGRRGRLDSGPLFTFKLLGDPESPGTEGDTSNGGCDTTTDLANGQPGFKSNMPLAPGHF
T1 sequence (P23944 whole entry): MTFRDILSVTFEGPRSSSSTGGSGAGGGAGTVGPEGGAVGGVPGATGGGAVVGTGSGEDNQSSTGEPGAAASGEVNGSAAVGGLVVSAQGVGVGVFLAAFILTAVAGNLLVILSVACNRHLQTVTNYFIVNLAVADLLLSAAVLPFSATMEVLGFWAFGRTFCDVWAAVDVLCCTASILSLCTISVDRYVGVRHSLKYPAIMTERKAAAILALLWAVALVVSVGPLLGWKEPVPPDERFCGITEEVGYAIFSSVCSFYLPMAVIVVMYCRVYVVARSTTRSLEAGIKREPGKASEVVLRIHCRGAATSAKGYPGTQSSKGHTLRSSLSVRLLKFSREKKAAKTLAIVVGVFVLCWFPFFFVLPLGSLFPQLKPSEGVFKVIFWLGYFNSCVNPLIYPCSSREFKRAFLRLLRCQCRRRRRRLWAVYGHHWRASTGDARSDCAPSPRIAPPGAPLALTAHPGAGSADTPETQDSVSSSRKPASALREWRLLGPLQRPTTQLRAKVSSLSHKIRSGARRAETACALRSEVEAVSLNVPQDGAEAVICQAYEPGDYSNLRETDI
T1 sequence (P43140 whole entry): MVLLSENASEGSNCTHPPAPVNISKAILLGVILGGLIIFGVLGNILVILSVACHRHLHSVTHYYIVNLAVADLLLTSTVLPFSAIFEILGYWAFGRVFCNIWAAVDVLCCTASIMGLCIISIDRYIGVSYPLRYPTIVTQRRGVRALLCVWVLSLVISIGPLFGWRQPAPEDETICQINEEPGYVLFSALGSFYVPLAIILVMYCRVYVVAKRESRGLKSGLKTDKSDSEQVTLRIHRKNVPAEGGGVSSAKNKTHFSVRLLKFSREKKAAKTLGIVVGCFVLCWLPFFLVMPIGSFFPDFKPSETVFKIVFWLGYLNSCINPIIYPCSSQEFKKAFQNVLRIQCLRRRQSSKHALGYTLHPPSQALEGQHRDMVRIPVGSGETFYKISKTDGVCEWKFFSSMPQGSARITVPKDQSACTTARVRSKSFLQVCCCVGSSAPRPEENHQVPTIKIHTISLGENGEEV

[2] = molecular target: T1, Adrenergic receptor alpha-1; test: Alpha-1-adrenolytic activity was assessed in vitro from the ability to inhibit norepinephrine-induced contraction of rat aorta preparation
[3] = molecular target: T2, Adrenergic receptor alpha-2 (Homo sapiens, UniProt P08913+P18825+P18089); test: In vitro ability to inhibit norepinephrine binding to alpha-2 adrenergic receptor of guinea pig vas deferens; format: tissue-based, Cavia porcellus; settings: target entry is the homologue from another species
T2 sequence (P08913 whole entry): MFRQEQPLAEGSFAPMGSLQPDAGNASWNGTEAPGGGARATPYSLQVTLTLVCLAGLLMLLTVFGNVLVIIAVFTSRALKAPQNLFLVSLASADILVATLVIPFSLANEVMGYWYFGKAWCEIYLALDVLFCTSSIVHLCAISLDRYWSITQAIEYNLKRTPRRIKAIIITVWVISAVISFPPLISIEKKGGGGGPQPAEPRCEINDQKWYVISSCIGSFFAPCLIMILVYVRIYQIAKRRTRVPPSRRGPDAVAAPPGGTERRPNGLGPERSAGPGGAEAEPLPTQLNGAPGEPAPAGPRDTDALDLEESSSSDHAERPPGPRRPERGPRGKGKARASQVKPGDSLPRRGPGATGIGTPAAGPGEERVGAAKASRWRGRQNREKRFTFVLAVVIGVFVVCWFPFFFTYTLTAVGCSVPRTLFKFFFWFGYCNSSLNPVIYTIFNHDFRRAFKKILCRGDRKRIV
T2 sequence (P18825 whole entry): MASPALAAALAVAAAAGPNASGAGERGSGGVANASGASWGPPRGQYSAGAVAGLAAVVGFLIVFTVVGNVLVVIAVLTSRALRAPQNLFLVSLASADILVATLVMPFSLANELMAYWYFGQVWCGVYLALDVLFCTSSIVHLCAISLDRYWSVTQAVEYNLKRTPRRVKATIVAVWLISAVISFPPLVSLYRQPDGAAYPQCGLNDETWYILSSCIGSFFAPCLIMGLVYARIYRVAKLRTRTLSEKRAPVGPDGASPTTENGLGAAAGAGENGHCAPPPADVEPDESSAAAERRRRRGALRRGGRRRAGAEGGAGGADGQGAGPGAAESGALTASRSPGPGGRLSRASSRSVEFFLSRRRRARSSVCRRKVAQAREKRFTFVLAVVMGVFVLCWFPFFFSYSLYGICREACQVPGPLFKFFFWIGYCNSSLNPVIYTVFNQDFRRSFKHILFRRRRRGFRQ
T2 sequence (P18089 whole entry): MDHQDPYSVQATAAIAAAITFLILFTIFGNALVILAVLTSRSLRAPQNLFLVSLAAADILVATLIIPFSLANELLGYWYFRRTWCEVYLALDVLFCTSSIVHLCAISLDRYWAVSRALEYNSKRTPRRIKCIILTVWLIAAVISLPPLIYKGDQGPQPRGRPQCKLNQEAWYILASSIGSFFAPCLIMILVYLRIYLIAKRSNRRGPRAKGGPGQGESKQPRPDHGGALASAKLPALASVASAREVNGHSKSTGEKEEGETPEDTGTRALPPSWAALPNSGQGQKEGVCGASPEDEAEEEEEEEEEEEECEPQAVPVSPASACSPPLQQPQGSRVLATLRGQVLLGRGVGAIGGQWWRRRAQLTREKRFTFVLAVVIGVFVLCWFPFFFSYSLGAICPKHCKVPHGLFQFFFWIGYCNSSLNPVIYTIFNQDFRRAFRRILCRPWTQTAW

[4] = species: Rattus norvegicus; test: Calcium antagonistic activity was evaluated by in vitro inhibition of [3H]nitrendipine binding on rat cerebral cortex; format: functional
[5] = Rattus norvegicus, Cerebral cortex, 90 min

IC50 [1]	IC50 [2]	IC50 [3]	IC50 [4, 5]	pA2 [3]	IC50 [4]	Compound
1000 nM	>> 0.0001 M	>> 0.00001 M	0.05 nM			CO/C(O)=C1\C(C)=NC(C)=C(C(=O)OC(C)CN(C)CC2COc3ccccc3O2)C1c1cccc([N+](=O)[O-])c1.Cl (stereo not given)
380 nM	0.00007 M		0.073 nM	6.7		CO/C(O)=C1\C(C)=NC(C)=C(C(=O)OCCN(C)C(C)COc2ccccc2)C1c1cccc([N+](=O)[O-])c1.Cl (stereo not given)
3900 nM	>> 0.00003 M				3.4 nM	CC1=NC(C)=C(C(=O)OC(C)CN(C)CC2COc3ccccc3O2)C(c2cccc([N+](=O)[O-])c2)/C1=C(\O)OC(C)C.Cl (stereo not given)
75000 nM	> 0.0001 M	> 0.0001 M	3.8 nM			CO/C(O)=C1\C(C)=NC(C)=C(C(=O)OCCN(C)C(c2ccccc2)C2CCCCC2)C1c1cccc([N+](=O)[O-])c1.Cl (stereo not given)
41 nM	0.00001 M	>> 1e-6 M	0.6 nM			CO/C(O)=C1\C(C)=NC(C)=C(C(=O)OCCN2CCC(n3c(O)nc4ccccc43)CC2)C1c1cccc([N+](=O)[O-])c1 (stereo not given)
300 nM	> 0.00001 M	> 1e-06 M	0.07 nM			CO/C(O)=C1\C(C)=NC(C)=C(C(=O)OCCN(C)CC2COc3ccccc3O2)C1c1ccccc1[N+](=O)[O-] (stereo not given)
2300 nM	> 0.00003 M	> 0.0001 M			2.8 nM	COC(=O)C1=C(C)NC(C)=C(C(=O)OCCN(C)C[C@H]2COc3ccccc3O2)[C@@H]1c1cccc([N+](=O)[O-])c1.Cl (stereo in doubt; 6b)
500 nM	0.00004 M	> 1e-06 M	0.1 nM			CO/C(O)=C1\C(C)=NC(C)=C(C(=O)OCCN(C)CC2COc3ccccc3O2)C1c1cccc([N+](=O)[O-])c1.Cl (stereo not given)
2400 nM	0.00001 M	>> 1e-6 M			0.018 nM	COC(=O)C1=C(C)NC(C)=C(C(=O)OCCN(C)C[C@H]2COc3ccccc3O2)[C@@H]1c1cccc([N+](=O)[O-])c1.Cl (stereo in doubt; 6a)
